The record followed here is patent US9924717B2, “Molecules having pesticidal utility, and intermediates, compositions, and processes, related thereto” (Dow AgroSciences LLC, priority 2016, dated 2018).

The structures appear in SMILES notation. Read-outs that look alike come from different tables or passages of the source.

Assay [1] deals with Cabbage Looper (Trichoplusia ni, TRIPNI) (CL). In words: Bioassays on Cabbage Looper (CL), 128-well diet tray assay. Type of assay: in vivo. As to conditions: for mortality at 5 µg/cm2: 168 h, diet tray, second instar larvae, five to seven days, read-out: Percent control (or mortality) CL; for pest or weed control at 50 µg/cm2: Table ABC rating, Cabbage Looper. Here is the method: (§1) Example A: Bioassays on Beet Armyworm (Spodoptera exigua, LAPHEG) (“BAW”), Corn Earworm (Helicoverpa zea, Helize) (“CEW”), and Cabbage Looper (Trichoplusia ni, TRIPNI) (“CL”)
(§2) Certain molecules disclosed in this document were tested against BAW, CEW, and CL using procedures described in the following examples. In the reporting of the results, the “BAW, CEW, & CL Rating Table” was used (See Table Section).
Bioassays on CL were conducted using a 128-well diet tray assay. one to five second instar CL larvae were placed in each well (3 mL) of the diet tray that had been previously filled with 1 mL of artificial diet to which 50 μg/cm^2 of the test molecule (dissolved in 50 μL of 90:10 acetone-water mixture) had been applied (to each of eight wells) and then allowed to dry. Trays were covered with a clear self-adhesive cover and held at 25° C., 14:10 light-dark for five to seven days. Percent mortality was recorded for the larvae in each well; activity in the eight wells was then averaged. The results are indicated in the table entitled “Table ABC: Biological Results” (See Table Section).
(§3) Bioassays on BAW and CL were conducted according to the procedures outlined in Example A: Bioassays on Beet Armyworm (“BAW”) and Cabbage Looper (“CL”) using the indicated concentrations.

Assay [2] deals with Beet Armyworm (Spodoptera exigua, LAPHEG) (BAW). In words: Bioassays on Beet Armyworm (BAW), 128-well diet tray assay. The assay is classed as in vivo. The conditions noted are these: for mortality at 5 µg/cm2: 168 h, diet tray, second instar larvae, five to seven days, read-out: Percent control (or mortality) BAW; for pest or weed control at 50 µg/cm2: Table ABC rating, Beet Armyworm. On the procedure:
as §1, §2
Bioassays on BAW were conducted using a 128-well diet tray assay. one to five second instar BAW larvae were placed in each well (3 mL) of the diet tray that had been previously filled with 1 mL of artificial diet to which 50 μg/cm^2 of the test molecule (dissolved in 50 μL of 90:10 acetone-water mixture) had been applied (to each of eight wells) and then allowed to dry. Trays were covered with a clear self-adhesive cover and held at 25° C., 14:10 light-dark for five to seven days. Percent mortality was recorded for the larvae in each well; activity in the eight wells was then averaged. The results are indicated in the table entitled “Table ABC: Biological Results” (See Table Section).
as §3

Where [3] appears, read: 5 μg/cm^2 (first BAW/CL column pair).
The mark [4] stands for this setting: 5 μg/cm^2 as printed (second BAW/CL column pair).

As to `O=C(NCC(F)(F)F)c1ccc(/C(F)=C/C(c2cc(Cl)c(Cl)c(Cl)c2)C(F)(F)F)cc1` (centres unmarked) [FC1, (Z)-4-(1,4,4,4-tetrafluoro-3-(3,4,5-trichlorophenyl)but-1-en-1-yl)-N-(2,2,2-trifluoroethyl)benzamide], the mortality at 5 µg/cm2 amounted to 100% in assay [1] (setting [3]), 6% in assay [1] (setting [4]), 25% in assay [2] (setting [3]) and 0% in assay [2] (setting [4]).
In the case of `O=C(NCc1ccnc(Cl)c1)c1ccc(/C(F)=C/C(c2cc(Cl)c(Cl)c(Cl)c2)C(F)(F)F)cc1C(F)(F)F` (centres unmarked) [F47, (Z)—N-((2-Chloropyridin-4-yl)methyl)-4-(1,4,4,4-tetrafluoro-3-(3,4,5-trichlorophenyl)but-1-en-1-yl)-2-(trifluoromethyl)benzamide], the pest or weed control at 50 µg/cm2 in assay [1] and in assay [2] was 50 to 100% throughout.
As to `CC(NC(=O)c1ccc(/C(F)=C/C(c2cc(Cl)c(Br)c(Cl)c2)C(F)(F)F)cc1C(F)(F)F)C(F)(F)F` (centres unmarked) [F38, 4-((Z)-3-(4-Bromo-3,5-dichlorophenyl)-1,4,4,4-tetrafluorobut-1-en-1-yl)-2-(trifluoromethyl)-N-(1,1,1-trifluoropropan-2-yl)benzamide], the pest or weed control at 50 µg/cm2 in assay [1] and in assay [2] was 50 to 100% in each case.
As to `O=C(NC1C[S+]([O-])C1)c1ccc(/C(F)=C/C(c2cc(Cl)c(Cl)c(Cl)c2)C(F)(F)F)cc1C(F)(F)F` (centres unmarked) [PF3], the pest or weed control at 50 µg/cm2 in assay [1] and in assay [2] was 50 to 100% each time.
For the compound `O=C(NC1CCC(F)(F)CC1)c1ccc(/C(F)=C/C(c2cc(Cl)c(Cl)c(Cl)c2)C(F)(F)F)cc1C(F)(F)F` (centres unmarked) [F4, (Z)—N-(4,4-Difluorocyclohexyl)-4-(1,4,4,4-tetrafluoro-3-(3,4,5-trichlorophenyl)but-1-en-1-yl)-2-(trifluoromethyl)benzamide], the pest or weed control at 50 µg/cm2 in assay [1] and in assay [2] was 50 to 100% in each case.
Regarding `O=C(NCC(F)(F)F)c1ccc(/C(F)=C/C(c2cc(Cl)c(Cl)c(Cl)c2)C(F)(F)F)cc1C(F)(F)F` (centres unmarked) [F1, (Z)-4-(1,4,4,4-tetrafluoro-3-(3,4,5-trichlorophenyl)but-1-en-1-yl)-N-(2,2,2-trifluoroethyl)-2-(trifluoromethyl)benzamide], the mortality at 5 µg/cm2 in assay [1] (setting [3]), in assay [1] (setting [4]), in assay [2] (setting [3]) and in assay [2] (setting [4]) was 100% in each case. The pest or weed control at 50 µg/cm2 in assay [1] and in assay [2] was 50 to 100% throughout.
As to `O=C(c1ccc(/C(F)=C/C(c2cc(Cl)c(Cl)c(Cl)c2)C(F)(F)F)cc1C(F)(F)F)N1CCCC1` (centres unmarked) [F6, (Z)-Pyrrolidin-1-yl(4-(1,4,4,4-tetrafluoro-3-(3,4,5-trichlorophenyl)but-1-en-1-yl)-2-(trifluoromethyl)phenyl) methanone], the pest or weed control at 50 µg/cm2 in assay [1] and in assay [2] was 50 to 100% each time.
Turning to `Cc1ccc([C@@H](C)NC(=O)c2ccc(/C(F)=C/C(c3cc(Cl)c(Cl)c(Cl)c3)C(F)(F)F)cc2C(F)(F)F)cc1` (stereo partly drawn) [F8, 4-((Z)-1,4,4,4-Tetrafluoro-3-(3,4,5-trichlorophenyl)but-1-en-1-yl)-N—((R)-1-(p-tolyl)ethyl)-2-(trifluoromethyl)benzamide], the pest or weed control at 50 µg/cm2 in assay [1] and in assay [2] was 50 to 100% throughout.
On to `CC(NC(=O)c1ccc(/C(F)=C/C(c2cc(Br)c(Cl)c(Br)c2)C(F)(F)F)cc1C(F)(F)F)C(F)(F)F` (centres unmarked) [F36, 4-((Z)-3-(3,5-Dibromo-4-chlorophenyl)-1,4,4,4-tetrafluorobut-1-en-1-yl)-2-(trifluoromethyl)-N-(1,1,1-trifluoropropan-2-yl)benzamide], for which the pest or weed control at 50 µg/cm2 in assay [1] and in assay [2] was 50 to 100% throughout.
Consider `O=C(NC1CCC(F)(F)CC1)c1ccc(/C(F)=C/C(c2cc(Cl)c(Cl)c(Cl)c2)C(F)(F)F)cc1Cl` (centres unmarked) [F9, (Z)-2-Chloro-N-(4,4-difluorocyclohexyl)-4-(1,4,4,4-tetrafluoro-3-(3,4,5-trichlorophenyl)but-1-en-1-yl)benzamide], for which the pest or weed control at 50 µg/cm2 in assay [1] and in assay [2] was 50 to 100% throughout.
For the compound `CC(NC(=O)c1ccc(/C(F)=C/C(c2cc(Cl)c(Cl)c(Cl)c2)C(F)(F)F)cc1C(F)(F)F)C(F)(F)F` (centres unmarked) [F2, (Z)-4-(1,4,4,4-Tetrafluoro-3-(3,4,5-trichlorophenyl)but-1-en-1-yl)-2-(trifluoromethyl)-N-(1,1,1-trifluoropropan-2-yl)benzamide], the pest or weed control at 50 µg/cm2 in assay [1] and in assay [2] was 50 to 100% throughout.
As for `O=C(NC1CC(F)(F)C1)c1ccc(/C(F)=C/C(c2ccc(F)c(Cl)c2)C(F)(F)F)cc1C(F)(F)F` (centres unmarked) [F63, (Z)-4-(3-(3-Chloro-4-fluorophenyl)-1,4,4,4-tetrafluorobut-1-en-1-yl)-N-(3,3-difluorocyclobutyl)-2-(trifluoromethyl)benzamide], the pest or weed control at 50 µg/cm2 in assay [1] and in assay [2] was 50 to 100% throughout.
With `O=CNC(=O)c1ccc(/C(F)=C/C(c2cc(Cl)c(Cl)c(Cl)c2)C(F)(F)F)cc1C(F)(F)F` (centres unmarked) [F20, (Z)—N-Formyl-4-(1,4,4,4-tetrafluoro-3-(3,4,5-trichlorophenyl)but-1-en-1-yl)-2-(trifluoromethyl)benzamide], the pest or weed control at 50 µg/cm2 in assay [1] and in assay [2] was 50 to 100% throughout.
`Cc1cc(/C(F)=C/C(c2cc(Cl)c(Cl)c(Cl)c2)C(F)(F)F)ccc1C(=O)NCC(F)(F)F` (centres unmarked) [F39, (Z)-2-Methyl-4-(1,4,4,4-tetrafluoro-3-(3,4,5-trichlorophenyl)but-1-en-1-yl)-N-(2,2,2-trifluoroethyl)benzamide]: the mortality at 5 µg/cm2 was determined as 100% in assay [1] (setting [3]), 100% in assay [1] (setting [4]), 33% in assay [2] (setting [3]) and 27% in assay [2] (setting [4]). Besides, the pest or weed control at 50 µg/cm2 in assay [1] and in assay [2] was 50 to 100% throughout.
Turning to `COc1cccc([C@@H](C)NC(=O)c2ccc(/C(F)=C/C(c3cc(Cl)c(Cl)c(Cl)c3)C(F)(F)F)cc2C(F)(F)F)c1` (stereo partly drawn) [F14, N—((R)-1-(3-Methoxyphenyl)ethyl)-4-((Z)-1,4,4,4-tetrafluoro-3-(3,4,5-trichlorophenyl)but-1-en-1-yl)-2-(trifluoromethyl)benzamide], the pest or weed control at 50 µg/cm2 in assay [1] and in assay [2] was 50 to 100% throughout.
Turning to `Cc1cc(C(/C=C(\F)c2ccc(C(=O)NC3CC3)c(C(F)(F)F)c2)C(F)(F)F)cc(C)c1Cl` (centres unmarked) [F37, (Z)-4-(3-(4-Chloro-3,5-dimethylphenyl)-1,4,4,4-tetrafluorobut-1-en-1-yl)-N-cyclopropyl-2-(trifluoromethyl)benzamide], the pest or weed control at 50 µg/cm2 in assay [1] and in assay [2] was 50 to 100% in each case.
With `O=C(c1ccc(/C(F)=C/C(c2cc(Cl)c(Cl)c(Cl)c2)C(F)(F)F)cc1Br)N1CCCC1` (centres unmarked) [F5, (Z)-(2-Bromo-4-(1,4,4,4-tetrafluoro-3-(3,4,5-trichlorophenyl)but-1-en-1-yl)phenyl)(pyrrolidin-1-yl)methanone], the pest or weed control at 50 µg/cm2 in assay [1] and in assay [2] was 50 to 100% each time.

For orientation: mortality means the percentage killed. The pest or weed control is how far the test organism was held down. High values mean strong suppression, low ones weak suppression.
